Patent EP1555271A1, “Peptides useful for diagnosis and therapy of TRP-2+ and/or TRP-1+ tumors” (Deutsches Krebsforschungszentrum Stiftung des öffentlichen …, priority 2004, dated 2005)
Ends that are not written are not given here.

Molecular target: HLA-DRB1*0301 (Homo sapiens, UniProt P01903+P01911, A100K/A102G/A103R/A169T/F55Y/I96L/K41T/L162R/M171V/P40S/Q125H/Q178H/Q39Y/R42S/S66N/T106N/T262R/W38E/Y61H)
Test: HLA-DR competitive binding assay on T2.DR3 cells (biotinylated TT829-843 reporter peptide, Europium sandwich immunoassay)
Conditions: dose necessary to reduce TT reporter peptide binding to 50%, 10 µM TT829-843 reporter, 180 min

IC50: 7.5 µM
Sequence: HLLCLERDLQRLIGN [TRP-2223-237, HLLCLERDLQRLIGN]
